Measured values as given in ChEMBL document CHEMBL1130442, “Tetrazole is an effective Sn-3 phosphate replacement in substrate analog inhibitors of 14 kDa phospholipase A2” (Bioorg Med Chem Lett, 1997).

Key:
Monocyte [1] = test: Compound was tested for inhibition of LTC4 release in the human monocytic cell line; NI means no inhibition observed; format: functional, cell-based
[2] = target: T1, Polyunsaturated fatty acid 5-lipoxygenase (Homo sapiens) (UniProt P09917); test: Compound was tested for inhibition of 5-lipoxygenase at 50 uM; NI means no inhibition was observed
T1 sequence (whole entry): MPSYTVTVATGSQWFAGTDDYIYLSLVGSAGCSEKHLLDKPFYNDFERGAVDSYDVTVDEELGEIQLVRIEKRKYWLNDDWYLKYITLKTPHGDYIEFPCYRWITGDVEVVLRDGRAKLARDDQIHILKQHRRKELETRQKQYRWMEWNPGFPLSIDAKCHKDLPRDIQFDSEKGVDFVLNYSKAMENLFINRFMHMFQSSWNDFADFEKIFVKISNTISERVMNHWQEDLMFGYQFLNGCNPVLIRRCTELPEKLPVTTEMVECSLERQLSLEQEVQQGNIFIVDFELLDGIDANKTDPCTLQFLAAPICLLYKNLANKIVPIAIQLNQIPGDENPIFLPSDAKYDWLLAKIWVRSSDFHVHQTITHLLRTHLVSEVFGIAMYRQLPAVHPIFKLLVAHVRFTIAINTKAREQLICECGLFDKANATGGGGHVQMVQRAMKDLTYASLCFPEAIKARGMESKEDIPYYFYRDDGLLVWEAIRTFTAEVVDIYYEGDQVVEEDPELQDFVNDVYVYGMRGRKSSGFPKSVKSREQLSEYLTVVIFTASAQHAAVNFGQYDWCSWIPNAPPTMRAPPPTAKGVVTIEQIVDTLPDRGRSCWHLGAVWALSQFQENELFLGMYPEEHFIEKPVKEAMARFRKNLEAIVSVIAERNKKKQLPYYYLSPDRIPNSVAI

Monocyte [3] = test: Compound was tested for inhibition of LTC4 release in the human monocytic cell line at 30 uM; format: functional

inhibition [2] | SMILES | inhibition (Monocyte [1]) | inhibition at 30 µM (Monocyte [3]) [%]
– | CCCCCCCCCCCCC(=O)NC(COCCC)COP(=O)(O)OCCO (centres undefined) | No inhibition | –
– | CCCCCCCCOC[C@H](COP(=O)(O)OCCN)OP(=O)(O)CCCCCCC | No inhibition | –
No inhibition | CCCCCCCCCCCCCCCCCCOCC(CCc1nnn[nH]1)NC(C)=O (centres undefined) | – | 75
